How the values were obtained:
[1] = system: HT-29; assay: Cytotoxic activity, IC50, HT-29; format: cell-based; settings: Homo sapiens
[2] = system: A-549; assay: Cytotoxic activity, IC50, A-549; format: cell-based; settings: Homo sapiens, A549
[3] = system: DU-145; assay: Cytotoxic activity, IC50, DU-145; format: cell-based; settings: Homo sapiens
[4] = system: P-388; assay: Cytotoxic activity, IC50, P-388; format: cell-based; settings: Mus musculus, P388
[5] = system: MEL-28; assay: Cytotoxic activity, IC50, MEL-28; format: cell-based; settings: Homo sapiens, SK-MEL-28
[6] = system: RAMOS; settings: ramos cells

Compound	IC50 [1] [µM]	IC50 [2] [µM]	IC50 [3] [µM]	IC50 [4] [µM]	IC50 [5] [µM]	IC50 [6] [nM]
C/C=C/C(=O)NC[C@H]1c2c(c(OC(C)=O)c(C)c3c2OCO3)C[C@H]2[C@H]3c4c(cc(C)c(OC)c4O)C[C@@H]([C@H](C#N)N12)N3C	0.0001	0.0008	0.0008	–	–	–
COc1c(C)cc2c(c1O)[C@@H]1[C@@H]3Cc4c(OC(C)=O)c(C)c5c(c4[C@H](CNC(=O)CCc4ccccc4)N3[C@@H](O)[C@H](C2)N1C)OCO5	0.0001	–	0.0001	–	–	–
COc1c(C)cc2c(c1O)[C@@H]1[C@@H]3Cc4c(OC(C)=O)c(C)c5c(c4[C@H](CNC(=O)Cc4ccccc4)N3[C@@H](O)[C@H](C2)N1C)OCO5	0.0007	0.0007	0.0007	0.0007	0.0007	–
COCOc1c(OC)c(C)cc2c1C1C3Cc4c(OC(C)=O)c(C)c5c(c4C(COC(=O)C=Cc4ccccc4)N3C(C#N)C(C2)N1C)OCO5 (centres unmarked)	0.07	0.07	0.07	–	0.07	–
CCCC(=O)OCC1c2c(c(OC(C)=O)c(C)c3c2OCO3)CC2C3c4c(cc(C)c(OC)c4O)CC(C(C#N)N12)N3C (centres unmarked)	0.0008	0.0008	0.0008	–	–	–
COc1c(C)cc2c(c1O)C1C3Cc4c(OC(C)=O)c(C)c5c(c4C(COC(=O)CCc4ccccc4)N3C(C#N)C(C2)N1C)OCO5 (centres unmarked)	0.0001	–	0.0001	–	–	–
COc1c(C)cc2c(c1O)C1C3Cc4c(OC(C)=O)c(C)c5c(c4C(COC(=O)C=Cc4ccccc4)N3C(C#N)C(C2)N1C)OCO5 (centres unmarked)	0.0007	0.0007	0.0007	0.0007	0.0007	–
CCCC(=O)OCC1c2c(c(OC(C)=O)c(C)c3c2OCO3)CC2C3c4c(cc(C)c(OC)c4O)CC(C(O)N12)N3C (centres unmarked)	0.0001	–	0.0001	–	–	–
COc1c(C)cc2c(c1O)C1C3Cc4c(OC(C)=O)c(C)c5c(c4C(COC(=O)C=Cc4cccc(C(F)(F)F)c4)N3C(O)C(C2)N1C)OCO5 (centres unmarked)	0.0001	–	0.0001	–	–	–
COc1c(C)cc2c(c1O)C1C3Cc4c(OC(C)=O)c(C)c5c(c4C(COC(=O)CCc4ccccc4)N3C(O)C(C2)N1C)OCO5 (centres unmarked)	0.0001	–	0.0001	–	–	–
COc1c(C)cc2c(c1O)C1C3Cc4c(OC(C)=O)c(C)c5c(c4C(COC(=O)C=Cc4ccccc4)N3C(O)C(C2)N1C)OCO5 (centres unmarked)	0.0007	0.0007	0.0007	–	0.0007	–
COc1c(C)cc2c(c1O)C1C3Cc4c(OC(C)=O)c(C)c5c(c4C(CNC(=O)C(CCCNC(=N)N)NC(=O)OC(C)(C)C)N3C(C#N)C(C2)N1C)OCO5 (centres unmarked)	> 1	> 1	–	–	–	–
COc1c(C)cc2c(c1O)C1C3Cc4c(OC(C)=O)c(C)c5c(c4C(CNC(=O)C(Cc4c[nH]c6ccccc46)NC(=O)OC(C)(C)C)N3C(O)C(C2)N1C)OCO5 (centres unmarked)	0.012	–	–	–	–	–
COc1c(C)cc2c(c1O)C1C3Cc4c(OC(C)=O)c(C)c5c(c4C(CNC(=O)c4cccnc4Cl)N3C(C#N)C(C2)N1C)OCO5 (centres unmarked)	0.00015	–	–	–	–	–
COc1c(C)cc2c(c1O)C1C3Cc4c(OC(C)=O)c(C)c5c(c4C(CNC(=O)c4cccnc4Cl)N3C(O)C(C2)N1C)OCO5 (centres unmarked)	0.00015	–	–	–	–	–
COc1c(C)cc2c(c1O)C1C3Cc4c(OC(C)=O)c(C)c5c(c4C(CNC(=O)CC4CCCCC4)N3C(C#N)C(C2)N1C)OCO5 (centres unmarked)	0.0015	–	–	–	–	–
COc1c(C)cc2c(c1OC(=O)CC1CCCCC1)C1C3Cc4c(OC(C)=O)c(C)c5c(c4C(CNC(=O)CC4CCCCC4)N3C(C#N)C(C2)N1C)OCO5 (centres unmarked)	0.013	–	–	–	–	–
COc1c(C)cc2c(c1O)C1C3Cc4c(OC(C)=O)c(C)c5c(c4C(CNC(=O)CCC4CCCCC4)N3C(C#N)C(C2)N1C)OCO5 (centres unmarked)	0.0015	–	–	–	–	–
COc1c(C)cc2c(c1OC(=O)CCC1CCCCC1)C1C3Cc4c(OC(C)=O)c(C)c5c(c4C(CNC(=O)CCC4CCCCC4)N3C(C#N)C(C2)N1C)OCO5 (centres unmarked)	0.12	–	–	–	–	–
COc1c(C)cc2c(c1O)[C@@H]1[C@@H]3Cc4c(OC(C)=O)c(C)c5c(c4[C@H](COC(=O)CCc4ccccc4)N3[C@@H](O)[C@H](C2)N1C)OCO5	–	–	–	–	–	1.86

Source: EP1496060B1, “Antitumoral analogs of ET-743” (PHARMA MAR, S.A., priority 2000, dated 2001)
